Reference: patent publication EP0597303A2, “Cephalosporin derivatives” (priority 1992, dated 1994)
Counter-ions that a name gives are not always drawn. Like-named read-outs stand apart in the source and are kept apart here.

Columns and labels:
Test in all cases: MIC, Agar (Mueller Hinton) Dilution Method
Type in all cases: cell-based
E. coli 1573E = details: Escherichia coli
From the text: (§1) The in vitro activity of the compounds of formula I of the present invention as measured by the Minimum Inhibitory Concentration (MIC) in micrograms/ml utilizing the Agar (Mueller Hinton) Dilution Method against a variety of Gram-positive and Gram-negative organisms, is set forth in Table 1.

Prot. mirabilis 90 = details: Proteus mirabilis
From the text: as §1

E. coli B = details: Escherichia coli, Gram Negative
From the text: as §1

Ser. marcescens 1071 = details: Serratia marcescens
From the text: as §1

Prot. vulgaris 1028 BC = details: Proteus vulgaris
From the text: as §1

E. coli 4 = details: Escherichia coli
From the text: as §1

Staph. aureus 1059B = details: Staphylococcus aureus
From the text: as §1

Prot. mirabilis 620A = details: Proteus mirabilis
From the text: as §1

Prot. vulgaris 100 = details: Proteus vulgaris, Gram Negative
From the text: as §1

Staph. aureus 404 = details: Staphylococcus aureus
From the text: as §1

E. coli 2722B = details: Escherichia coli, Gram Negative
From the text: as §1

Ps. aeruginosa 56-1B = details: Pseudomonas aeruginosa, 561B
From the text: as §1

Staph. aureus 3037B = details: Staphylococcus aureus; Staph. aureus 3037B; Gram Positive and Others; read-out: MIC
From the text: as §1

Prot. mirabilis 503-1136 = details: Proteus mirabilis, 5031136; Prot. mirabilis 503-1136; Gram Negative; read-out: MIC
From the text: as §1

Ent. faecalis ATCC 29212 = details: Enterococcus faecalis, ATCC29212, Gram Positive and Others
From the text: as §1

E. coli ATCC 25922 = details: Escherichia coli, ATCC25922
From the text: as §1

Prot. mirabilis 190 = details: Proteus mirabilis
From the text: as §1

Staph. aureus 3647B = details: Staphylococcus aureus
From the text: as §1

[1] = test system: Str. pneumoniae N82-012-MC; details: Streptococcus pneumoniae, N82012MC
From the text: as §1

Staph. aureus ATCC 29213 = details: Staphylococcus aureus, ATCC29213; Staph. aureus ATCC 29213; Gram Positive and Others; read-out: MIC
From the text: as §1

Staph. aureus 82 = details: Staphylococcus aureus
From the text: as §1

Ps. aeruginosa 56M = details: Pseudomonas aeruginosa, Gram Negative
From the text: as §1

Xan. maltophilia 2897B = details: Stenotrophomonas maltophilia, Gram Negative
From the text: as §1

Escherichia coli 257 = details: Gram Negative
From the text: as §1

Mycobacterium phlei 78 = details: Mycolicibacterium phlei; Mycobacterium phlei 78; Gram Positive and Others; read-out: MIC
From the text: as §1

Staph. aureus ATCC 25923 = details: Staphylococcus aureus, ATCC25923, Gram Positive and Others
From the text: as §1

Staph. aureus 67 = details: Staphylococcus aureus
From the text: as §1

Ps. aeruginosa K799/WT = details: Pseudomonas aeruginosa, Gram Negative
From the text: as §1

E. coli HMS1 = details: Escherichia coli
From the text: as §1

Ps. aeruginosa 765 = details: Pseudomonas aeruginosa, Gram Negative
From the text: as §1

E. coli 1269B = details: Escherichia coli, Gram Negative
From the text: as §1

Bacillus subtilis 558 = test system: Bacillus subtilis 558
From the text: as §1

Ps. aeruginosa 1937E = details: Pseudomonas aeruginosa, Gram Negative
From the text: as §1

[2] = test system: Ps. aeruginosa ATCC 27853; details: Pseudomonas aeruginosa, ATCC27853, Gram Negative
From the text: as §1

E. coli Leo HA2M4 = details: Escherichia coli, LEOHA2M4
From the text: as §1

Staph. aureus 753 = details: Staphylococcus aureus; Staph. aureus 753; methicillin-resistant; Gram Positive and Others; read-out: MIC
From the text: as §1

Ser. marcescens MA = details: Serratia marcescens, Gram Negative
From the text: as §1

[3] = test system: Streptococcus pneumoniae 6303; details: Streptococcus pneumoniae, 6303
From the text: as §1

[4] = Prot. mirabilis 90, Gram Negative, read-out: MIC
[5] = Ser. marcescens 1071, Gram Negative, read-out: MIC
[6] = Staph. aureus 1059B, Gram Positive and Others, read-out: MIC
[7] = Staph. aureus 404, Gram Positive and Others, read-out: MIC
[8] = Ps. aeruginosa 56-1B, Gram Negative, read-out: MIC
[9] = Prot. mirabilis 190, Gram Negative, read-out: MIC
[10] = Staph. aureus 3647B, Gram Positive and Others, read-out: MIC
[11] = Str. pneumoniae N82-012-MC, Gram Positive and Others, read-out: MIC
[12] = Staph. aureus 82, Gram Positive and Others, read-out: MIC
[13] = Staph. aureus 67, methicillin-resistant, Gram Positive and Others, read-out: MIC
[14] = E. coli HMS1, Gram Negative, read-out: MIC
[15] = E. coli Leo HA2M4, Gram Negative, read-out: MIC
[16] = E. coli 1573E, Gram Negative, read-out: MIC
[17] = Prot. mirabilis 620A, Gram Negative, read-out: MIC

SMILES | MIC (Prot. mirabilis 90; [4]) [µg/mL] | MIC (E. coli B) [µg/mL] | MIC (Prot. vulgaris 100) [µg/mL] | MIC (E. coli 2722B) [µg/mL] | MIC (Staph. aureus 3037B) [µg/mL] | MIC (Prot. mirabilis 503-1136) [µg/mL] | MIC (Ent. faecalis ATCC 29212) [µg/mL] | MIC (Staph. aureus ATCC 29213) [µg/mL] | MIC (Ps. aeruginosa 56M) [µg/mL] | MIC (Xan. maltophilia 2897B) [µg/mL] | MIC (Escherichia coli 257) [µg/mL] | MIC (Mycobacterium phlei 78) [µg/mL] | MIC (Staph. aureus ATCC 25923) [µg/mL] | MIC (Ps. aeruginosa K799/WT) [µg/mL] | MIC (Ps. aeruginosa 765) [µg/mL] | MIC (E. coli 1269B) [µg/mL] | MIC (Ps. aeruginosa 1937E) [µg/mL] | MIC [2] [µg/mL] | MIC (Staph. aureus 753) [µg/mL] | MIC (Ser. marcescens MA) [µg/mL] | also measured
O=C(Cc1cccs1)N[C@@H]1C(=O)N2C(C(=O)O)=C(COC(=O)N3CCN(c4c(F)cc5c(=O)c(C(=O)O)cn(C6CC6)c5c4F)CC3)CS[C@H]12 [Formula Ia, [6R,7R]-3-[[[[4-(3-Carboxy-1-cyclopropyl-6,8-difluoro-1,4-dihydro-4-oxo-7-quinolinyl)-1-piperazinyl]carbonyl]-oxy]-methyl]-8-oxo-7-[(2-thienylacetyl)amino]-5-thia-1-azabicyclo-[4.2.0]oct-2-ene-2-carboxylic acid] | 0.5 | 0.0313 | 0.125 | ≤ 0.0156 | 1 | 0.5 | 4 | 0.5 | 0.25 | 1 | 0.0625 | 0.125 | 0.25 | 2 | 2 | 0.0313 | 1 | 1 | 0.5 | 16 | MIC (E. coli 1573E; 1573E): 0.0625 µg/mL; MIC (Ser. marcescens 1071; [5]): 0.125 µg/mL; MIC (Prot. vulgaris 1028 BC; 1028BC): 0.0625 µg/mL; MIC (E. coli 4; E. coli 4, Gram Negative, read-out: MIC): 0.125 µg/mL; MIC (Staph. aureus 1059B; [6]): 0.25 µg/mL; MIC (Prot. mirabilis 620A; 620A): 0.0625 µg/mL; MIC (Staph. aureus 404; [7]): 0.5 µg/mL; MIC (Ps. aeruginosa 56-1B; [8]): 0.25 µg/mL; MIC (E. coli ATCC 25922): 0.0625 µg/mL; MIC (Prot. mirabilis 190; [9]): 0.125 µg/mL; MIC (Staph. aureus 3647B; [10]): 0.5 µg/mL; MIC [1, 11]: 0.0313 µg/mL; MIC (Staph. aureus 82; [12]): 0.125 µg/mL; MIC (Staph. aureus 67; [13]): 1 µg/mL; MIC (E. coli HMS1; [14]): ≤ 0.0156 µg/mL; MIC (Bacillus subtilis 558; Bacillus subtilis 558, Gram Positive and Others, read-out: MIC): 0.0313 µg/mL; MIC (E. coli Leo HA2M4; [15]): ≤ 0.0156 µg/mL
N#CCC(=O)N[C@@H]1C(=O)N2C(C(=O)O)=C(COC(=O)NC3CCN(c4c(F)cc5c(=O)c(C(=O)O)cn(C6CC6)c5c4F)C3)CS[C@H]12 (some centres unmarked) [Formula Ib, [6R,7R]-3-[[[[[1-(3-Carboxy-1-cyclopropyl-6,8-difluoro-1,4-dihydro-4-oxo-7-quinolinyl-3-[R,S]-pyrrolidinyl]-amino]carbonyl]oxy]methyl]-7-[(cyanoacetyl)amino]-8-oxo-5-thia-1-azabicyclo[4.2.0]oct-2-ene-2-carboxyiic acid monosodium salt] | 1 | 0.0625 | 0.25 | ≤ 0.0156 | 0.25 | 0.25 | 2 | 0.25 | 0.25 | 0.25 | 0.125 | 0.25 | 0.25 | 0.5 | 1 | 0.0625 | 0.5 | 1 | 0.25 | 4 | MIC (E. coli 1573E; [16]): 0.0625 µg/mL; MIC (Ser. marcescens 1071; [5]): 0.25 µg/mL; MIC (Prot. vulgaris 1028 BC; 1028BC): 0.125 µg/mL; MIC (E. coli 4; 4): 0.125 µg/mL; MIC (Staph. aureus 1059B; [6]): 0.25 µg/mL; MIC (Prot. mirabilis 620A; [17]): 0.25 µg/mL; MIC (Staph. aureus 404; [7]): 0.25 µg/mL; MIC (Ps. aeruginosa 56-1B; [8]): 0.5 µg/mL; MIC (E. coli ATCC 25922; E. coli ATCC 25922, Gram Negative, read-out: MIC): 0.0625 µg/mL; MIC (Prot. mirabilis 190; [9]): 0.25 µg/mL; MIC (Staph. aureus 3647B; [10]): 0.25 µg/mL; MIC [1, 11]: 0.5 µg/mL; MIC (Staph. aureus 82; 82): 0.125 µg/mL; MIC (Staph. aureus 67; [13]): 0.25 µg/mL; MIC (E. coli HMS1; HMS1): 0.0313 µg/mL; MIC (Bacillus subtilis 558; Bacillus subtilis, 558): 0.125 µg/mL; MIC [3]: 0.125 µg/mL; MIC (E. coli Leo HA2M4): 0.0313 µg/mL
N#CCC(=O)N[C@@H]1C(=O)N2C(C(=O)O)=C(COC(=O)N[C@H]3CCN(c4c(F)cc5c(=O)c(C(=O)O)cn(C6CC6)c5c4F)C3)CS[C@H]12 [Formula Iba, [6R-[3(S^*), 6 alpha, 7 beta]]-3-[[[[[1-(3-Carboxy-1-cyclopropyl-6,8-difluoro-1,4-dihydro-4-oxo-7-quinolinyl-3-pyrrolidinyl]-amino]carbonyl]oxy]methyl]-7-[(cyanoacetyl)amino]-8-oxo-5-thia 1-azabicyclo[4.2.0]oct-2-ene-2-carboxylic acid monosodium salt] |  | ≤ 0.0156 | 0.0625 | ≤ 0.0156 | 0.0625 | 0.0625 | 0.5 | 0.0625 | 0.0625 | 0.25 | 0.0313 | 0.0625 | 0.0625 | 0.5 | 0.5 | ≤ 0.0156 | 0.25 | 1 | 0.0625 | 4 | MIC (E. coli 1573E; [16]): ≤ 0.0156 µg/mL; MIC (Prot. mirabilis 90; 90): 0.125 µg/mL; MIC (Ser. marcescens 1071; 1071): 0.0313 µg/mL; MIC (Prot. vulgaris 1028 BC; Prot. vulgaris 1028 BC, Gram Negative, read-out: MIC): ≤ 0.0156 µg/mL; MIC (E. coli 4; 4): 0.0313 µg/mL; MIC (Staph. aureus 1059B; 1059B): 0.0313 µg/mL; MIC (Prot. mirabilis 620A; [17]): 0.0625 µg/mL; MIC (Staph. aureus 404; 404): 0.0313 µg/mL; MIC (Ps. aeruginosa 56-1B): 0.125 µg/mL; MIC (E. coli ATCC 25922): 0.0313 µg/mL; MIC (Prot. mirabilis 190; 190): 0.0313 µg/mL; MIC (Staph. aureus 3647B; 3647B): 0.0313 µg/mL; MIC [1]: 0.125 µg/mL; MIC (Staph. aureus 82; [12]): 0.0625 µg/mL; MIC (Staph. aureus 67; 67): 0.125 µg/mL; MIC (E. coli HMS1; [14]): ≤ 0.0156 µg/mL; MIC (Bacillus subtilis 558; Bacillus subtilis, 558): 0.0313 µg/mL; MIC [3]: 0.0313 µg/mL; MIC (E. coli Leo HA2M4; [15]): ≤ 0.0156 µg/mL
